Reference: patent US8153601B2, “Azithromycin-containing aqueous pharmaceutical composition and a method for the preparation of the same” (Wakamoto Pharmaceutical Co., Ltd., priority 2004, dated 2012)

Test: Stability of azithromycin during the preparation steps (survival rate of AZT after preparation, HPLC)
Type: physicochemical
Conditions: pH of the azithromycin-containing aqueous solution less than 4.0
Method: Stability of the azithromycin-containing aqueous pharmaceutical compositions prepared in the above Examples and Comparative Examples were evaluated in terms of azithromycin concentration in the composition.
The compositions (Examples 1 to 8 and Comparative Examples 1 and 2) were packed in glass vial, sealed with a lid, and stored at 60° C. for one and two weeks. Then, azithromycin concentration in the composition just after packed in the glass vial and after the storage at 60° C. was determined by HPLC. Stability was evaluated as follows.
First, the azithromycin content added was compared with the azithromycin content in the composition just after packed in the glass vial to evaluate stability of azithromycin during the preparation steps. This is expressed by a survival rate of AZT after preparation wherein AZT means azithromycin.
The same procedures in Test Example 1 were repeated to evaluate stability of the compositions of Examples 9 to 12 and Comparative Example 3.
The similar procedures to Test Example 1 were repeated to evaluate stability of the compositions of Examples 18 to 20.

## CC[C@H]1OC(=O)[C@H](C)[C@@H](O[C@H]2C[C@@](C)(OC)[C@@H](O)[C@H](C)O2)[C@H](C)[C@@H](O[C@@H]2O[C@H](C)C[C@H](N(C)C)[C@H]2O)[C@](C)(O)C[C@@H](C)CN(C)[C@H](C)[C@@H](O)[C@]1(C)O [azithromycin]
  decomposition of azithromycin in aqueous solution: decomposed
